The text below walks through data of patent US10975068B2, “6-aminopyridin-3-yl thiazoles as modulators of RORγT” (Janssen Pharmaceutica NV, priority 2016, dated 2021).

Assay [1] deals with full-length human RORγt (Homo sapiens (Human), UniProt P51449). In words: RORγt (full-length human) reporter assay, Conditions B or C. Conditions: for IC50: read-out: RORγt (FL) Reporter Assay B or C, IC50; for inhibition at 3 µM: at 3 μM compound concentration, read-out: RORγt (FL) Reporter Assay B or C, % inhibition; for RORγt (FL) Reporter Assay B or C, % inhibition (value marked *): marked *: footnote not given. The format is cell-based. A digest of the protocol:
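HEK293T cells transiently co-transfected with GAL4-DBD–full-length human RORγt (nt 142-1635, NM_001001523.1) plus GAL4-firefly and CMV-Renilla luciferase reporters; compounds added 4-6 h post-transfection for 16-20 h in 1.3% FBS, 0.1% DMSO. Firefly signal normalized to DMSO and saturating reference compound, then to Renilla; IC50 from concentration plots.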
(In general: A reporter such as luciferase makes a cellular process visible.)

The target in assay [2] is human RORγt ligand binding domain (RORγt LBD) (Homo sapiens (Human), UniProt P51449). In words: RORγt ThermoFluor® assay (thermal shift binding). To be noted: read-out: ThermoFluor® Assay, Kd. In outline:
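His-tagged human RORγt LBD (0.065 mg/mL) with 60 μM 1,8-ANS in 100 mM Hepes pH 7.0, 10 mM NaCl, 2.5 mM GSH, 0.002% Tween-20 was heated at 1 °C/min.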
A general note: DSF heats the sample and reads unfolding from a dye or from intrinsic fluorescence.

Like-named read-outs stand apart in the source and are kept apart here.

human RORγt ligand binding domain (RORγt LBD), sequence (P51449 other isoform, or with tags, fused parts or gaps): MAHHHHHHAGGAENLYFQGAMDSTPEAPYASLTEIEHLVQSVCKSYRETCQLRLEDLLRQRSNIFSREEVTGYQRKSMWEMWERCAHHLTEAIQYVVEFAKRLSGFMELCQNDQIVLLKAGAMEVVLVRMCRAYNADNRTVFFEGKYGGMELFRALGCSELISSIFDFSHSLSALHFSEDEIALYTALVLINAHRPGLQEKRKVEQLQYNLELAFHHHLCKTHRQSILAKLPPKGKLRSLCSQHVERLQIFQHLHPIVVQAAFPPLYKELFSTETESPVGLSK
full-length human RORγt, sequence (P51449 other isoform, or with tags, fused parts or gaps): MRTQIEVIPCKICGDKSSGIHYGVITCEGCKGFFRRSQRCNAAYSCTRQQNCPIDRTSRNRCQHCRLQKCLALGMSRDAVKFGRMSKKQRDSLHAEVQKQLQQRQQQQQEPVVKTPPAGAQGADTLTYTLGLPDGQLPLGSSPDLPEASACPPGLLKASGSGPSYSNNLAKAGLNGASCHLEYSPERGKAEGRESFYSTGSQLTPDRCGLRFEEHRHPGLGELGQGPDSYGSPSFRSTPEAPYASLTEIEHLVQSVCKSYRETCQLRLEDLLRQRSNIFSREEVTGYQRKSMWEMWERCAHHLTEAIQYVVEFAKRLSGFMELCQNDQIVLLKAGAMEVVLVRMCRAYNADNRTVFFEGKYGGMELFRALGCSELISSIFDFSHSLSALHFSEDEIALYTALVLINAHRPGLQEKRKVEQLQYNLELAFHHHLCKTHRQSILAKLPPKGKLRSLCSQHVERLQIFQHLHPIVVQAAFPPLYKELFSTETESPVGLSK

Usually IC50 stands for the concentration at which inhibition is half-maximal. For orientation: Kd means the constant that tells how readily two partners part at equilibrium. For `CC[C@H](Nc1cc(C(F)F)c(-c2sc(C(=O)N[C@@H]3COC[C@H]3O)nc2C(=O)N2CCC[C@@H]2C)cn1)C(F)(F)F` [Example 220, 5-(4-(Difluoromethyl)-6-(((1S)-1-(trifluoromethyl)propyl)amino)-3-pyridyl)-N-((3R,4S)-4-hydroxytetrahydrofuran-3-yl)-4-((2S)-2-methylpyrrolidine-1-carbonyl)thiazole-2-carboxamide], the “RORγt (FL) Reporter Assay B or C, % inhibition (value marked *****)” value in assay [1] (Conditions B or C, marked *****: footnote not shown) is 111***** %. For the same molecule, in assay [1] (Conditions B or C), the IC50 was 13 nM. Besides, in assay [2], the Kd is 6.1 nM.

A word on the inhibition: it is the drop in the measured response relative to a control, in per cent. With `C[C@H]1CCCN1C(=O)c1nc(C(=O)N[C@H](C)C(C)(C)O)sc1-c1cnc(NC(C)(C)C)cc1C(F)(F)F` [Example 335, 5-[6-(tert-Butylamino)-4-(trifluoromethyl)-3-pyridyl]-N-[(1R)-2-hydroxy-1,2-dimethyl-propyl]-4-[(2S)-2-methylpyrrolidine-1-carbonyl]thiazole-2-carboxamide], in assay [1], the inhibition at 3 µM worked out at 102% and the IC50 came out at 40 nM. Besides, in assay [2], the equilibrium dissociation constant (Kd) turned out to be 1.3 nM.

On to `C[C@H](Nc1cc(C(F)(F)F)c(-c2sc(C(=O)N[C@@H]3CCC[C@@H]3O)nc2C(=O)N2CC(F)(F)C[C@@H]2C)cn1)C1CC1` [Example 201, 5-(6-(((S)-1-Cyclopropylethyl)amino)-4-(trifluoromethyl)pyridine-3-yl)-4-((S)-4,4-difluoro-2-methylpyrrolidine-1-carbonyl)-N-((1R,2S)-2-hydroxycyclopentyl)thiazole-2-carboxamide], for which, in assay [1] (Conditions B or C), the “RORγt (FL) Reporter Assay B or C, % inhibition (value marked *)” value (“RORγt … % inhibition (value marked *)” below) is 102* % and the IC50 came to 16 nM. In addition, the Kd in assay [2] worked out at 0.61 nM.

On to `C[C@H]1CCCN1C(=O)c1nc(C(=O)N[C@H](C)C(C)(C)O)sc1-c1cnc(NC(C)(C)C)cc1C(F)F` [Example 269, 5-[6-(tert-Butylamino)-4-(difluoromethyl)-3-pyridyl]-N-[(1R)-2-hydroxy-1,2-dimethyl-propyl]-4-[(2S)-2-methylpyrrolidine-1-carbonyl]thiazole-2-carboxamide], for which, in assay [1], the inhibition at 3 µM stood at 101% and the concentration for half-maximal inhibition (IC50) is 8.2 nM. In assay [2], the Kd is 4.9 nM.

Take `CC[C@H](Nc1cc(C(F)F)c(-c2sc(C(=O)NCC(C)(C)O)nc2C(=O)N2C3CCC2CC3)cn1)C1CC1` (stereo in doubt) [Example 163, 4-((1s,4s)-7-Azabicyclo[2.2.1]heptane-7-carbonyl)-5-(6-(((S*)-1-cyclopropyl)amino)-4-(difluoromethyl)pyridine-3-yl)-N-(2-hydroxy-2-methylpropyl)thiazole-2-carboxamide]: in assay [1] (Conditions B or C), the “RORγt … % inhibition (value marked *)” value is listed as 114* % and the IC50 was found to be 12 nM. Moreover, the equilibrium dissociation constant (Kd) in assay [2] turned out to be 14 nM.

As for `C[C@H]1CCCN1C(=O)c1nc(C(=O)N2CC(C)(O)C2)sc1-c1cnc(NC(C)(C)C)cc1C(F)F` [Example 149, [5-[6-(tert-Butylamino)-4-(difluoromethyl)-3-pyridyl]-2-(3-hydroxy-3-methyl-azetidine-1-carbonyl)thiazol-4-yl]-[(2S)-2-methylpyrrolidin-1-yl]methanone], in assay [1] (Conditions B or C), the “RORγt … % inhibition (value marked *)” value was 108* % and the half-maximal inhibitory concentration (IC50) stood at 100 nM. In addition, in assay [2], the Kd was 20 nM.

With `C[C@H]1CCCN1C(=O)c1nc(C(=O)NCC(C)(O)C(F)(F)F)sc1-c1cnc(NC(C)(C)C)cc1C(F)(F)F` (stereo partly drawn) [Example 357, 5-(6-(tert-Butylamino)-4-(trifluoromethyl)pyridin-3-yl)-4-((S)-2-methylpyrrolidine-1-carbonyl)-N-(3,3,3-trifluoro-2-hydroxy-2-methylpropyl)thiazole-2-carboxamide], in assay [1], the inhibition at 3 µM came out at 106% and the IC50 came out at 12 nM. Besides, the Kd in assay [2] is 1.2 nM.

Regarding `C[C@H]1CC(F)(F)CN1C(=O)c1nc(C(=O)NC2CCS(=O)(=O)CC2)sc1-c1cnc(NC2(C)CCC2)cc1C(F)F` [Example 328, (S)-4-(4,4-Difluoro-2-methylpyrrolidine-1-carbonyl)-5-(4-(difluoromethyl)-6-((1-methylcyclobutyl)amino)pyridin-3-yl)-N-(1,1-dioxidotetrahydro-2H-thiopyran-4-yl)thiazole-2-carboxamide], in assay [1], the inhibition at 3 µM is 87% and the IC50 turned out to be 51 nM. In addition, the Kd in assay [2] came out at 0.31 nM.

Take `C[C@H](Nc1cc(C(F)F)c(-c2sc(C(=O)N[C@@H](C)C(C)(C)O)nc2C(=O)N2CC(F)(F)C[C@@H]2C)cn1)C1CC1` [Example 193, 5-(6-(((S)-1-Cyclopropylethyl)amino)-4-(difluoromethyl)pyridine-3-yl)-4-((S)-4,4-difluoro-2-methylpyrrolidine-1-carbonyl)-N—((S)-3-hydroxy-3-methylbutan-2-yl)thiazole-2-carboxamide]: in assay [1] (Conditions B or C), the “RORγt … % inhibition (value marked *)” value is reported as 82* % and the IC50 came out at 32 nM. For the same molecule, in assay [2], the equilibrium dissociation constant (Kd) stood at 2.6 nM.

Turning to `C[C@H]1CCCN1C(=O)c1nc(C(=O)NC[C@H](O)CO)sc1-c1cnc(NC(C)(C)C)cc1C(F)(F)F` [Example 363, 5-[6-(tert-Butylamino)-4-(trifluoromethyl)-3-pyridyl]-N-[(2S)-2,3-dihydroxypropyl]-4-[(2S)-2-methylpyrrolidine-1-carbonyl]thiazole-2-carboxamide], in assay [1], the inhibition at 3 µM is 111% and the 50% inhibitory concentration (IC50) was 130 nM. Also, the Kd in assay [2] is 13 nM.

Take `CC[C@H](Nc1cc(C(F)F)c(-c2sc(C(=O)N[C@H](C)[C@H](C)O)nc2C(=O)N2CCC[C@@H]2C)cn1)C(F)(F)F` (relative stereo) [Example 218, 5-(4-(Difluoromethyl)-6-(((S)-1,1,1-trifluorobutan-2-yl)amino)pyridin-3-yl)-N-((2R*,3S*)-3-hydroxybutan-2-yl)-4-((S)-2-methylpyrrolidine-1-carbonyl)thiazole-2-carboxamide]: in assay [1] (Conditions B or C), the “RORγt … % inhibition (value marked *)” value is 111* % and the IC50 turned out to be 45 nM. The Kd in assay [2] amounted to 7.8 nM.

For `CC[C@H](Nc1cc(C(F)F)c(-c2sc(C(=O)N[C@H]3CC[C@H]3O)nc2C(=O)N2CCC[C@@H]2C)cn1)C(F)(F)F` (relative stereo) [Example 380, 5-(4-(Difluoromethyl)-6-(((S)-1,1,1-trifluorobutan-2-yl)amino)pyridin-3-yl)-N-((1S*,2R*)-2-hydroxycyclobutyl)-4-((S)-2-methylpyrrolidine-1-carbonyl)thiazole-2-carboxamide], in assay [1], the inhibition at 3 µM is 108% and the IC50 came out at 18 nM. In assay [2], the Kd came to 1.6 nM.

Regarding `C[C@H]1CCCN1C(=O)c1nc(C(=O)NCC(C)(C)O)sc1-c1cnc(NC(C2CC2)C2CC2)cc1C(F)F` [Example 179, (S)-5-(6-((Dicyclopropylmethyl)amino)-4-(difluoromethyl)pyridine-3-yl)-N-(2-hydroxy-2-methylpropyl)-4-(2-methylpyrrolidine-1-carbonyl)thiazole-2-carboxamide], in assay [1] (Conditions B or C), the “RORγt … % inhibition (value marked *)” value is reported as 105* % and the 50% inhibitory concentration (IC50) was determined as 18 nM. The Kd in assay [2] stood at 2.2 nM.

With `C[C@H](Nc1cc(C(F)F)c(-c2sc(C(=O)N[C@H](C)C(C)(C)O)nc2C(=O)N2CC(F)(F)C[C@@H]2C)cn1)C1CC1` [Example 194, 5-(6-(((S)-1-Cyclopropylethyl)amino)-4-(difluoromethyl)pyridine-3-yl)-4-((S)-4,4-difluoro-2-methylpyrrolidine-1-carbonyl)-N—((R)-3-hydroxy-3-methylbutan-2-yl)thiazole-2-carboxamide], in assay [1] (Conditions B or C), the “RORγt … % inhibition (value marked *)” value was 85* % and the IC50 stood at 88 nM. Moreover, in assay [2], the Kd was found to be 4.7 nM.
